From patent US4478849A, “Secondary amines, their preparation and use in pharmaceutical compositions” (Beecham Group Limited, priority 1978, dated 1984)

Key:
blood glucose = assay: hypoglycaemic activity: reduction in area under blood glucose curve after glucose load in fasted mice; assay type: in vivo, female CFLP mice; conditions: for inhibition in vivo at 5 mg/kg / inhibition in vivo at 20 mg/kg: Mus musculus, po, 2 h, 30 min before glucose load 1 g/kg sc, 2 hour period, versus control mice; for inhibition in vivo at 5 mg/kg: 5 mg/kg po; for anti-hyperglycaemic activity (in words): general statement, no dose given; for inhibition in vivo at 20 mg/kg: 20 mg/kg po
Experimental: Female CFLP mice, weighing approximately 25 g, were fasted for 24 hours prior to the study. The compounds under study were dosed orally (20 mg and 5 mg/kg) to each of 8 mice. 30 minutes later a blood sample ([…]) was obtained from the tail for the analysis of blood glucose. Immediately after taking this blood sample, each mouse was given a glucose load (1 g/kg body weight sub-cutaneously). Blood samples were then obtained from each mouse at 30 minute intervals for 120 minutes.
Compounds that produced a significant (P<0.05) reduction of blood glucose, compared with control mice given water, at any time interval were considered active. The area under the blood glucose curve over the 2 hour period after giving the glucose load was calculated for each compound and compared with the value for control animals. Thus a compound would give a 100% reduction in the area under the blood glucose curve if the blood glucose was maintained at the same level as in untreated fasted animals. Reduction in the glucose curve of more than 100% indicate that a compound, in spite of being given a glucose load, maintained blood glucose levels below that found in control fasted mice.

genetically obese mice = assay: carcass lipid of genetically obese mice after daily oral dosing for 28 days (anti-obesity); assay type: in vivo, mouse (genetically obese); conditions: for g - lipid per mouse, Treated: daily for 28 days; for anti-obesity activity (in words): general statement, no dose given
Experimental: (i) The compounds and a comparison compound (salbutamol) were dosed daily in water or carboxymethylcellulose suspension to genetically obese mice by oral gavage for 28 days. At the end of that time the carcass composition was determined.

## COC(=O)c1ccc(CC(C)NCC(O)c2ccc(O)c(CO)c2)c(OC)c1 (centres unmarked) [Example 12, N-[2-(4-Carbomethoxy-2-methoxyphenyl)-1-methylethyl]-2-hydroxy-2-(4-hydroxy-3-hydroxymethylphenyl)ethanamine]
Blood glucose
  inhibition in vivo at 5 mg/kg: 168%
  anti-hyperglycaemic activity (in words): particularly worthy of mention in view of their anti-hyperglycaemic activity
Genetically obese mice; 11 mg/kg po, control 18.9 ± 0.66 (Ex. 12), 17.0 ± 0.67 (Ex. 17)
  g - lipid per mouse, Treated: 16.2 ± 0.42 g
Genetically obese mice
  anti-obesity activity (in words): particularly worthy of mention in view of their anti-obesity activity

## COC(=O)c1ccc(CCNCC(O)c2ccccc2)cc1 (centres unmarked) [Example 25, N-(2-[4-Carbomethoxyphenyl]ethyl)-2-hydroxy-2-phenylethanamine]
Blood glucose
  inhibition in vivo at 5 mg/kg: 179%
  anti-hyperglycaemic activity (in words): particularly worthy of mention in view of their anti-hyperglycaemic activity

## COC(=O)c1ccc(CC(C)NCC(O)c2ccccc2Cl)cc1 (centres unmarked) [Example 28, N-(2-[4-Carbomethoxyphenyl]-1-methylethyl)-2-(2-chlorophenyl)-2-hydroxyethanamine]
Blood glucose
  inhibition in vivo at 5 mg/kg: 37%
Genetically obese mice; 19 mg/kg po, control 17.0 ± 0.67
  g - lipid per mouse, Treated: 14.9 ± 0.37 g

## COC(=O)c1ccc(CC(C)NCC(O)c2cc(Cl)c(N)c(Cl)c2)cc1 (centres unmarked) [Example 30, N-(2-[4-Carbomethoxyphenyl]-1-methylethyl)-2-(4-amino-3,5-dichlorophenyl)-2-hydroxyethanamine]
Blood glucose
  inhibition in vivo at 5 mg/kg: 141%
  anti-hyperglycaemic activity (in words): particularly worthy of mention in view of their anti-hyperglycaemic activity
Genetically obese mice; 22 mg/kg po, control 19.1 ± 0.47
  g - lipid per mouse, Treated: 14.0 ± 0.57 g
Genetically obese mice
  anti-obesity activity (in words): particularly worthy of mention in view of their anti-obesity activity

## CC(Cc1ccc(C(=O)O)cc1)NCC(O)c1ccccc1 (centres unmarked) [Example 44, N-[2-(4-Carboxyphenyl)-1-methylethyl]-2-hydroxy-2-phenylethanamine]
Genetically obese mice
  anti-obesity activity (in words): particularly worthy of mention in view of their anti-obesity activity

## COC(=O)c1ccc(CCNCC(O)c2ccccc2Cl)cc1 (centres unmarked) [Example 27, N-(2-[4-Carbomethoxyphenyl]ethyl)-2-(2-chlorophyenyl)-2-hydroxyethanamine]
Blood glucose
  inhibition in vivo at 5 mg/kg: 38%

## COC(=O)c1ccc(CC(C)NCC(O)c2ccc(O)cc2Cl)cc1 (centres unmarked) [Example 33, N-(2-[4-Carbomethoxyphenyl]-1-methylethyl)-2-(2-chloro-4-hydroxyphenyl)-2-hydroxyethanamine]
Blood glucose
  inhibition in vivo at 5 mg/kg: 88%
  anti-hyperglycaemic activity (in words): particularly worthy of mention in view of their anti-hyperglycaemic activity

## COC(=O)c1ccc(CC(C)NCC(O)c2ccc(O)c(CO)c2)cc1C (centres unmarked) [Example 14, N-[2-(4-Carbomethoxy-3-methylphenyl)-1-methylethyl]-2-hydroxy-2-(4-hydroxy-3-hydroxymethylphenyl)ethanamine]
Genetically obese mice; 10.5 mg/kg po, control 17.0 ± 0.67
  g - lipid per mouse, Treated: 14.3 ± 0.61 g
Genetically obese mice
  anti-obesity activity (in words): particularly worthy of mention in view of their anti-obesity activity

## COC(=O)c1ccc(CC(C)NCC(O)c2ccccc2)c(Cl)c1 (centres unmarked) [Example 23, N-(2-[4-Carbomethoxy-2-chlorophenyl]-1-methylethyl)-2-hydroxy-2-phenylethanamine]
Genetically obese mice
  anti-obesity activity (in words): particularly worthy of mention in view of their anti-obesity activity

## COC(=O)c1ccc(CC(C)NCC(O)c2ccc(O)c(CS(C)(=O)=O)c2)cc1 (centres unmarked) [Example 39, N-(2-[4-Carbomethoxyphenyl]-1-methylethyl)-2-(4-hydroxy-3-methylsulphonylmethylphenyl)-2-hydroxyethanamine]
Blood glucose
  inhibition in vivo at 5 mg/kg: 83%
  anti-hyperglycaemic activity (in words): particularly worthy of mention in view of their anti-hyperglycaemic activity

## COC(=O)c1ccc(CC(C)NCC(O)c2ccccc2)c(OC)c1 (centres unmarked) [Example 24, N-(2-[4-Carbomethoxy-2-methoxyphenyl]-1-methylethyl)-2hydroxy-2-phenylethanamine]
Genetically obese mice
  anti-obesity activity (in words): particularly worthy of mention in view of their anti-obesity activity

## COC(=O)c1ccc(CC(C)NCC(O)c2ccc(O)c(N)c2)cc1 (centres unmarked) [Example 34]
Blood glucose
  inhibition in vivo at 20 mg/kg: 61%

## COC(=O)c1ccc(C(C)NCC(O)c2ccc(O)c(CO)c2)cc1 (centres unmarked) [Example 18]
Blood glucose
  inhibition in vivo at 20 mg/kg: 25%

## COC(=O)c1ccc(OCC(C)NCC(O)c2ccc(O)c(CO)c2)cc1 (centres unmarked) [Example 8, N-[2-(4-Carbomethoxyphenoxy)-1-methylethyl]-2-hydroxy-2-(4-hydroxy-3-hydroxymethylphenyl)ethanamine]
Genetically obese mice; 21 mg/kg po, control 21.9 ± 0.5
  g - lipid per mouse, Treated: 19.6 ± 0.4 g

## CCOC(=O)c1ccc(CC(C)NCC(O)c2ccc(O)c(CO)c2)cc1 (centres unmarked) [Example 16, N-[2-(4-Carboethoxyphenyl)-1-methylethyl]-2-hydroxy-2-(4-hydroxy-3-hydroxymethylphenyl) ethanamine]
Genetically obese mice; 10 mg/kg po, control 18.3 ± 0.6 (Ex. 7), 16.5 ± 0.7 (Ex. 16, 21)
  g - lipid per mouse, Treated: 12.9 ± 0.8 g
Genetically obese mice
  anti-obesity activity (in words): particularly worthy of mention in view of their anti-obesity activity

## COC(=O)c1ccc(C[C@@H](C)NCC(O)c2ccc(O)c(CO)c2)cc1 (stereo partly drawn) [Example 35, N-(1-(R)-2-[4-Carbomethoxyphenyl]-1-methylethyl)-2-hydroxy-2-(4-hydroxy-3-hydroxymethylphenyl)ethanamine]
Genetically obese mice
  anti-obesity activity (in words): particularly worthy of mention in view of their anti-obesity activity

## CC(Cc1ccc(C(=O)OC(C)C)cc1)NCC(O)c1ccc(O)c(CO)c1 (centres unmarked) [Example 13, N-[2-(4-Carboisopropoxyphenyl)-1-methylethyl]-2-hydroxy-2-(4-hydroxy-3-hydroxymethylphenyl)ethanamine]
Genetically obese mice
  anti-obesity activity (in words): particularly worthy of mention in view of their anti-obesity activity

## CC(C)(C)NCC(O)c1ccc(O)c(CO)c1 (centres unmarked) [Salbutamol, reference compound]
Genetically obese mice; 25 mg/kg po, control 23.0 ± 0.3
  g - lipid per mouse, Treated: 23.1 ± 0.6 g

## COC(=O)c1ccc(CC(C)NCC(O)c2ccc(O)c(NC(C)=O)c2)cc1 (centres unmarked) [Example 38, N-(2-[4-Carbomethoxyphenyl]-1-methylethyl)-2-(3-acetamido-4-hydroxyphenyl)-2-hydroxyethanamine]
Blood glucose
  inhibition in vivo at 5 mg/kg: 59%

## COC(=O)c1ccc(CC(C)NCC(O)c2ccc(O)c(O)c2)cc1 (centres unmarked) [Example 19, N-(2-[4-Carbomethoxyphenyl]-1-methylethyl)-2-(3,4-dihydroxyphenyl)-2-hydroxyethanamine]
Blood glucose
  anti-hyperglycaemic activity (in words): particularly worthy of mention in view of their anti-hyperglycaemic activity

## COC(=O)c1ccc(CC(C)NCC(O)c2ccc(O)c(CO)c2)cc1OC (centres unmarked) [Example 10, N-[2-(4-Carbomethoxy-3-methoxyphenyl)-1-methylethyl]-2-hydroxy-2-(4-hydroxy-3-hydroxymethylphenyl)ethanamine]
Genetically obese mice
  anti-obesity activity (in words): particularly worthy of mention in view of their anti-obesity activity

## COC(=O)c1ccc(CC(C)NCC(O)c2ccc(O)c(CO)c2)c(F)c1 (centres unmarked) [Example 9, N-[2-(4-Carbomethoxy-2-fluorophenyl)-1-methylethyl]-2-hydroxy-2-(4-hydroxy-3-hydroxymethylphenyl) ethanamine]
Blood glucose
  inhibition in vivo at 5 mg/kg: 47%

## COC(=O)c1ccc(C[C@H](C)NCC(O)c2ccc(O)c(CO)c2)cc1 (stereo partly drawn) [Example 36, N-(1-(S)-2-[4-Carbomethoxyphenyl]-1-methylethyl)-2-hydroxy-2-(4-hydroxy-3-hydroxymethylphenyl)ethanamine]
Blood glucose
  inhibition in vivo at 5 mg/kg: 79%
  anti-hyperglycaemic activity (in words): particularly worthy of mention in view of their anti-hyperglycaemic activity

## COC(=O)c1ccc(CC(C)(C)NCC(O)c2ccc(O)c(CO)c2)cc1 (centres unmarked) [Example 31, N-(2-[4-Carbomethoxyphenyl]-1,1-dimethylethyl)-2-hydroxy-2-(4-hydroxy-3-hydroxymethylphenyl) ethanamine]
Blood glucose
  inhibition in vivo at 5 mg/kg: 139%
  anti-hyperglycaemic activity (in words): particularly worthy of mention in view of their anti-hyperglycaemic activity

## COC(=O)c1ccc(CC(C)NCC(O)c2ccc(O)c(NS(C)(=O)=O)c2)cc1 (centres unmarked) [Example 37, N-(2-[4-Carbomethoxyphenyl]-1-methylethyl)-2-(4-hydroxy-3-methanesulphonamidophenyl)-2-hydroxyethanamine]
Genetically obese mice
  anti-obesity activity (in words): particularly worthy of mention in view of their anti-obesity activity

## COC(=O)c1ccc(CC(C)(C)NCC(O)c2ccccc2)cc1 (centres unmarked) [Example 26, N-(2-[4-Carbomethoxyphenyl]-1,1-dimethylethyl)-2-hydroxy-2-phenylethanamine]
Genetically obese mice; 9 mg/kg po, control 18.9 ± 0.66
  g - lipid per mouse, Treated: 16.4 ± 1.2 g
Genetically obese mice
  anti-obesity activity (in words): particularly worthy of mention in view of their anti-obesity activity
